Among the test systems are NCI-H522; HOP-62; NCI-H226; SF-295; CAKI-1; HOP-92; OVCAR-4; NCI-H460; HCT-15; K562; HCC 2998; LOX IMVI; A549; NCI-H23; OVCAR-5; IGROV-1; UACC-62; ACHN; SR; TK-10.
Test in all cases: NCI anticancer screen, dose series, 48 h

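Where inhibition never reached the appropriate level, the endpoint shown equals the highest concentration tested. Otherwise, values were interpolated linearly from a five-concentration, 48-hour dose response in 96-well plates. GI50 is the concentration that inhibits growth by half.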 The source made the active and inactive calls. Rule as the data show it: active = GI50 up to about 1.1 µM and inactive = higher.

As for `CC1=C2C(O)C(C(C)C(=O)NC(C)C)CCC2(C)C=CC1=O` (stereo unspecified), the GI50 in the test with NCI-H522, in the test on HOP-62, with NCI-H226, in the test with SF-295, in the test on CAKI-1 and with HOP-92 was > 100 µM (inactive) throughout. The GI50 with OVCAR-4 is > 100 µM (inactive); with NCI-H460 it was > 100 µM (inactive); with HCT-15 it was greater than 100 µM; in the test with K562, > 100 µM (inactive); in the test with HCC 2998 it was > 100 µM (inactive); in the test on LOX IMVI, > 100 µM (inactive). The GI50 with A549, with NCI-H23, in the test on OVCAR-5, in the test on IGROV-1 and in the test on UACC-62 was > 100 µM (inactive) throughout.

Take `N#CN=C(NCCO)NCCO`: the GI50 in the test on NCI-H522, with ACHN, with HOP-62, with NCI-H226, in the test on SR and in the test on SF-295 was > 100 µM (inactive) throughout. Further, the GI50 in the test on CAKI-1 was > 100 µM (inactive); with OVCAR-4 it was > 100 µM (inactive); in the test on NCI-H460 it was > 100 µM (inactive); with HCT-15, greater than 100 µM; in the test with HCC 2998, > 100 µM (inactive); in the test with LOX IMVI it was > 100 µM (inactive). Further, the GI50 in the test on A549, in the test with OVCAR-5, in the test with IGROV-1 and in the test on UACC-62 was > 100 µM (inactive) throughout.

For `COc1nc(C#CCC(C)O)nc(OC)n1` (stereo unspecified), the GI50 was 17.7 µM (inactive) in the test with NCI-H522; 17.1 µM (inactive) in the test with ACHN; 4.89 µM (inactive) in the test on HOP-62; 21.1 µM (inactive) in the test on SR; 24.2 µM (inactive) in the test with TK-10; 30.6 µM (inactive) with SF-295. Also, the GI50 was 17.6 µM (inactive) in the test with CAKI-1; 18.8 µM (inactive) in the test on OVCAR-4; 39.4 µM (inactive) with NCI-H460; 18.6 µM with HCT-15; 38.2 µM (inactive) in the test on K562; 14.2 µM (inactive) in the test with LOX IMVI. For the same compound, the GI50 in the test on A549 was 23.3 µM (inactive); in the test with NCI-H23, 19.9 µM (inactive); with OVCAR-5 it was 19.1 µM (inactive); with IGROV-1 it was 15.7 µM (inactive); in the test with UACC-62 it was 15.1 µM (inactive).

Take `COc1ccc(/C(Cl)=C(\C=O)c2ccc(F)cc2)cc1OC`: the GI50 was 12.3 µM (inactive) in the test on NCI-H522; 16.8 µM (inactive) in the test with ACHN; 15.2 µM (inactive) in the test with HOP-62; 14 µM (inactive) in the test with NCI-H226; 34.3 µM (inactive) in the test on TK-10; 21.6 µM (inactive) with SF-295. The GI50 was 19.1 µM (inactive) in the test with CAKI-1; 6.32 µM (inactive) with HOP-92; 19.3 µM (inactive) in the test with NCI-H460; 12.8 µM with HCT-15; 16.8 µM (inactive) with K562; 14.2 µM (inactive) in the test on LOX IMVI. The GI50 is 16.6 µM (inactive) in the test on NCI-H23, 31.9 µM (inactive) in the test with IGROV-1 and 14.5 µM (inactive) in the test with UACC-62.

With `COCCCNc1nc(N)c(C#N)c(C#N)c1C#N`, the GI50 in the test on NCI-H522, with ACHN, in the test with HOP-62, with NCI-H226, with SR and in the test on TK-10 was > 10 µM (inactive) in each case. Further, the GI50 with SF-295 is > 10 µM (inactive); in the test with CAKI-1, > 10 µM (inactive); with OVCAR-4 it was > 10 µM (inactive); in the test on NCI-H460, > 10 µM (inactive); in the test on HCT-15, greater than 10 µM; in the test with K562, 2.72 µM (inactive). Moreover, the GI50 in the test with HCC 2998, with LOX IMVI, in the test on A549, in the test with NCI-H23, with OVCAR-5 and in the test on IGROV-1 was > 10 µM (inactive) in each case. Moreover, in the test on UACC-62, the GI50 was > 10 µM (inactive).

Regarding `Cc1ccc(N2C(=O)C3CSCN3C2=O)cc1` (stereo unspecified), the GI50 in the test on NCI-H522, in the test on HOP-62, with NCI-H226, in the test on SF-295, in the test on CAKI-1 and in the test on HOP-92 was > 100 µM (inactive) throughout. Moreover, the GI50 with OVCAR-4 was > 100 µM (inactive); with NCI-H460, > 100 µM (inactive); in the test with HCT-15, greater than 100 µM; in the test on K562 it was > 100 µM (inactive); in the test with HCC 2998, > 100 µM (inactive); with LOX IMVI, > 100 µM (inactive). Besides, the GI50 with A549, in the test on NCI-H23, in the test on OVCAR-5, in the test with IGROV-1 and in the test on UACC-62 was > 100 µM (inactive) throughout.

With `CC(=O)OC1CCC2(C)C3CCC4(C)C(c5ccc(=O)oc5)CC5OC54C3CCC2(O)C1` (stereo unspecified), the GI50 with NCI-H522 is 0.53 µM (active); with HOP-62 it was 0.811 µM (active); in the test with NCI-H226, 4.72 µM (inactive); in the test on SF-295, 1.15 µM (inactive); in the test with CAKI-1, 0.738 µM (active); with HOP-92, 2.45 µM (inactive). The GI50 in the test on OVCAR-4 was 2.3 µM (inactive); in the test with NCI-H460 it was 0.579 µM (active); in the test with HCT-15, 1.9 µM; in the test with K562 it was 0.979 µM (active); in the test with HCC 2998, 2.98 µM (inactive); with LOX IMVI, 1.63 µM (inactive). Besides, the GI50 in the test on A549 was 0.495 µM (active); in the test on NCI-H23 it was 0.649 µM (active); with OVCAR-5 it was 5.81 µM (inactive); with IGROV-1, 2.61 µM (inactive); in the test on UACC-62, 2.69 µM (inactive).

As to `C=CCc1c(O)c2c(c3oc(=O)cc(C)c13)CC(C)O2` (stereo unspecified), the GI50 in the test with NCI-H522 is > 100 µM (inactive); with ACHN, > 100 µM (inactive); with HOP-62, > 100 µM (inactive); with NCI-H226, 41.5 µM (inactive); in the test with SR it was > 100 µM (inactive); in the test on TK-10 it was > 100 µM (inactive). Further, the GI50 is > 100 µM (inactive) with SF-295; > 100 µM (inactive) with CAKI-1; > 100 µM (inactive) in the test with OVCAR-4; 52.5 µM (inactive) with NCI-H460; greater than 100 µM in the test with HCT-15; > 100 µM (inactive) in the test on K562. Moreover, the GI50 in the test with HCC 2998 was > 100 µM (inactive); in the test with LOX IMVI, 46.3 µM (inactive); in the test on A549, > 100 µM (inactive); with NCI-H23, > 100 µM (inactive); in the test on OVCAR-5, > 100 µM (inactive); with IGROV-1, 20.2 µM (inactive). Moreover, the GI50 with UACC-62 is > 100 µM (inactive).

Take `CON(C)c1nc(N(C)OC)nc(N(C)OC)n1`: the GI50 in the test with NCI-H522, in the test with ACHN, with HOP-62, in the test on NCI-H226, in the test on SR and with TK-10 was > 10 µM (inactive) in each case. The GI50 with SF-295 is > 10 µM (inactive); in the test with CAKI-1 it was > 10 µM (inactive); in the test on OVCAR-4, > 10 µM (inactive); in the test on NCI-H460 it was > 10 µM (inactive); in the test on HCT-15, greater than 10 µM; in the test with K562, > 10 µM (inactive). In addition, the GI50 in the test on HCC 2998, in the test with LOX IMVI, with A549, with NCI-H23, in the test with OVCAR-5 and with IGROV-1 was > 10 µM (inactive) in each case. Further, the GI50 with UACC-62 is > 10 µM (inactive).

These data come from ChEMBL document CHEMBL1201862, “PubChem BioAssay data set” (2004).
